Data: patent EP2276483B1, “SOLID FORMS COMPRISING (+)-2-[1-(3-ETHOXY-4-METHOXYPHENYL)-2-METHYLSULFONYLETHYL]-4-ACETYLAMINOISOINDOLINE-1,3-DIONE, COMPOSITIONS THEREOF, AND USES THEREOF” (CELGENE CORPORATION, priority 2008, dated 2009)
Converted amounts (≈) assume the structure as drawn. Read-outs that look alike come from different tables or passages of the source.

Tests used:
[1] = Stability Studies of solid forms; assay type: physicochemical
Method: Stability Studies. The stabilities of Forms A, B, C and D were studied by exposing the solid samples to the stress condition of 40 °C / 75% RH for four weeks. Moreover, the stabilities of Forms A, B, C and D in different solvents were studied by equilibration in different solvents at 40 °C for four weeks. The slurries then were filtered and dried in the air. Solid samples obtained from the stability experiments were analyzed by XRPD and DSC.

[2] = Compression Studies of solid forms; details: 2000 psi force for at least one minute
[3] = Interconversion Studies of solid forms; assay type: physicochemical; details: EQ in acetone:ethanol (1:1) at 25 °C; slurry agitated at least 2 days
Method: Interconversion Studies. Interconversion experiments were performed by making slurries of a solid form in a saturated solvent. The slurries were agitated for at least 2 days at about 25 °C. The saturated solution was removed by filtration and the solid was dried in the air.

[4] = Hygroscopicity studies (DVS moisture sorption/desorption); assay type: physicochemical; details: for mass change of the starting mass of the sample (moisture sorption): RH increased from about 0% to about 95% RH; for solid-state transformation as a result of DVS analysis (XRPD): after full adsorption/desorption cycle, about 0% to about 95% RH, about 25 °C
Method: Hygroscopicity studies. The hygroscopicity of various solid forms was studied using a Surface Measurement Systems DVS instrument. Typically a sample size of between about 10-50 mg was loaded into the DVS instrument sample pan and the sample was analyzed on a DVS automated sorption analyzer at about 25 °C. The relative humidity was increased in increments of about 10% from about 0% to about 95% RH: The relative humidity was then decreased in a similar manner to accomplish a full adsorption/desorption cycle. The mass was recorded at periodic intervals throughout the experiment.
Hygroscopicity Studies. […] Table 6. Solubility Study on Form B

[5] = Solubility Studies in solvents; assay type: physicochemical; details: 25 °C, thermodynamic from solid, about 25 °C, read-out: Approximate Solubility
Method: Solubility Studies. A weighed sample of Compound A (about 100 mg) was treated with about 2 mL of the test solvent. The solvents used were either reagent or HPLC grade. The resulting mixture was agitated for at least 24 hours at about 25 °C. When all of the solids were dissolved by visual inspection, the estimated solubilities were calculated. The solubilities were estimated from these experiments based on the total volume of solvent used to give a solution. The actual solubilities may be greater than those calculated due to the use of large amount of solvent or to a slow rate of dissolution. […] A known volume of filtrate was evaporated to dryness and the weight of the residue was measured.
Solubility Studies. […] Form B was also found to have low solubility in several solvents including n-butanol, heptane, 2-propanol, toluene and water (less than about 1 mg/mL).

[6] = EQ in ethanol at 40 °C for 4 weeks
[7] = EQ in heptane at 40 °C for 4 weeks
[8] = EQ in toluene at 40 °C for 4 weeks
[9] = EQ in water at 40 °C for 4 weeks

Row | SMILES | Analysis by XRPD (resulting form) ([1]; 40 °C / 75% RH, 4 weeks) | Appearance ([1]; 40 °C / 75% RH, 4 weeks) | Analysis by XRPD (resulting form) [1, 6] | Analysis by XRPD (resulting form) [1, 7] | Analysis by XRPD (resulting form) [1, 8] | Analysis by XRPD (resulting form) [1, 9] | physical stability upon compression by XRPD analysis [2] | Analysis by XRPD (resulting form) [3] | mass change of the starting mass of the sample (moisture sorption) [4] | solid-state transformation as a result of DVS analysis (XRPD) [4] | other results
1 | CCOc1cc(C(CS(C)(=O)=O)N2C(=O)c3cccc(NC(C)=O)c3C2=O)ccc1OC (single isomer, unassigned; (+)) [Form A, (+)-2-[1-(3-ethoxy-4-methoxyphenyl)-2-methylsulfonylethyl]-4-acetylaminoisoindoline-1,3-dione] | Form A | White solid | Form F | Form A | Form C | Form A | substantially physically stable | Form B | about 0.4% | none of the forms analyzed underwent substantial solid-state transformation | 
2 | CCOc1cc(C(CS(C)(=O)=O)N2C(=O)c3cccc(NC(C)=O)c3C2=O)ccc1OC (single isomer, unassigned; (+)) [Form D, (+)-2-[1-(3-ethoxy-4-methoxyphenyl)-2-methylsulfonylethyl]-4-acetylaminoisoindoline-1,3-dione] | Form D | White solid | Form B | Form B | Form C | Form B | substantially physically stable | Form B | about 1.5% | none of the forms analyzed underwent substantial solid-state transformation | 
3 | CCOc1cc(C(CS(C)(=O)=O)N2C(=O)c3cccc(NC(C)=O)c3C2=O)ccc1OC (single isomer, unassigned; (+)) [Form B, (+)-2-[1-(3-ethoxy-4-methoxyphenyl)-2-methylsulfonylethyl]-4-acetylaminoisoindoline-1,3-dione] | Form B | White solid | Form B | Form B | Form B | Form B | substantially physically stable |  | about 0.6% | none of the forms analyzed underwent substantial solid-state transformation | solubility ([5]; 2-propanol, organic solvent or mixture, 2-Propanol): < 1000 µg/mL; solubility ([5]; absolute ethanol, organic solvent or mixture, Absolute ethanol): 1380 µg/mL (≈ 3 mM); solubility ([5]; acetone, organic solvent or mixture, Acetone): > 50000 µg/mL; solubility ([5]; acetonitrile, organic solvent or mixture, Acetonitrile): > 50000 µg/mL; solubility ([5]; ethanol:water (1:1), aqueous with cosolvent or surfactant or cyclodextrin, Ethanol: Water (1:1)): 2860 µg/mL (≈ 6.21 mM); solubility ([5]; ethyl acetate, organic solvent or mixture, Ethyl acetate): ~30200 µg/mL (≈ 65.5 mM); solubility ([5]; methanol, organic solvent or mixture, Methanol): 4050 µg/mL (≈ 8.79 mM); solubility ([5]; methyl ethyl ketone, organic solvent or mixture, Methyl ethyl ketone): > 50000 µg/mL; solubility ([5]; methyl t-butyl ether, organic solvent or mixture, Methyl t-butyl ether): 1170 µg/mL (≈ 2.54 mM); solubility ([5]; methylene chloride, organic solvent or mixture, Methylene chloride): > 50000 µg/mL; solubility ([5]; n-butanol, organic solvent or mixture, n-Butanol): < 1000 µg/mL; solubility ([5]; n-butyl acetate, organic solvent or mixture, n-Butyl acetate): 9750 µg/mL (≈ 21.2 mM); solubility ([5]; tetrahydrofuran, organic solvent or mixture, Tetrahydrofuran): > 50000 µg/mL; solubility ([5]; toluene, organic solvent or mixture, Toluene): < 1000 µg/mL; solubility ([5]; water, water, Water): < 1000 µg/mL
4 | CCOc1cc(C(CS(C)(=O)=O)N2C(=O)c3cccc(NC(C)=O)c3C2=O)ccc1OC (single isomer, unassigned; (+)) [Form C, (+)-2-[1-(3-ethoxy-4-methoxyphenyl)-2-methylsulfonylethyl]-4-acetylaminoisoindoline-1,3-dione] | Form C | Yellow solid | Form C | Form C | Form C | Form C | substantially physically stable | Form C | about 0.5% | none of the forms analyzed underwent substantial solid-state transformation | 
